# Experimental data taken from ChEMBL document CHEMBL5131496, “Adiponectin-Secretion-Promoting Cyclic Peptide-Polyketide Hybrids from a Halophyte-Associated Fungus, Colletotrichum gloeosporioides JS0417” (J Nat Prod, 2022).
# pEC50, pIC50: −log10 of the molar value. Calls of active or inactive are those of the source. The rule behind the calls is not given here.
# What was measured:
# Mesenchymal stem cells [1] = assay: Induction of adiponectin secretion in human differentiated BMMSC cells at 30 uM in the presence of IDX induction medium and measured on 5 day by ELISA relative to control; assay type: functional
# Mesenchymal stem cells [2] = assay: Induction of adiponectin secretion in human differentiated BMMSC cells measured at 5 day in the presence of IDX induction medium by ELISA; assay type: functional, cell-based; details: for pEC50: 120 h
# Mesenchymal stem cells [3] = assay: Induction of adiponectin secretion in human differentiated BMMSC cells assessed as increase in size of lipid droplet at 30 uM in the presence of IDX induction medium by Oil red O staining based inverted phase contrast microscope analysis; assay type: functional, cell-based
# Mesenchymal stem cells [4] = assay: Induction of adiponectin secretion in human differentiated BMMSC cells assessed as increase in number of lipid droplet at 30 uM in the presence of IDX induction medium by Oil red O staining based inverted phase contrast microscope analysis; assay type: functional, cell-based
# HaCaT [5] = assay: Antiinflammatory activity against human HaCaT cells assessed as inhibition of UVB irradiation-induced PGE2 production measured after 2 hrs by ELISA; assay type: functional, cell-based; details: light or radiation study
# Mesenchymal stem cells [6] = assay: Induction of adiponectin secretion in human differentiated BMMSC cells assessed as increase in lipid droplet accumulation at 300 uM in the presence of IDX induction medium by Oil red O staining based inverted phase contrast microscope analysis; assay type: functional, cell-based
# HaCaT [7] = assay: Antiinflammatory activity against human HaCaT cells assessed as inhibition of UVB irradiation-induced PGE2 production at 10 uM measured after 2 hrs by ELISA; assay type: functional, cell-based
pEC50 (Mesenchymal stem cells [2]),SMILES,Activity (Mesenchymal stem cells [1]),pIC50 (HaCaT [5]),other results
4.64,CC[C@H](C)[C@H]1C(=O)O[C@H]([C@@H](C)CCCC[C@@H](C)O)C[C@@H](O)[C@@H](C)C(=O)N[C@H](Cc2ccccc2)C(=O)N1C,123%,–,Activity (Mesenchymal stem cells [3]): Active; Activity (Mesenchymal stem cells [4]): Active
5.55,COc1ccc(Cl)cc1C(=O)NCCc1ccc(S(=O)(=O)NC(=O)NC2CCCCC2)cc1 [GLYBURIDE],–,–,–
4.53,CC(C)C[C@H]1NC(=O)[C@H](C)[C@H](O)C[C@@H]([C@@H](C)CCCC[C@@H](C)O)OC(=O)[C@H](CC(C)C)N(C)C1=O,116%,–,Activity (Mesenchymal stem cells [3]): Active; Activity (Mesenchymal stem cells [4]): Active
< 3.52,CC(=O)Oc1ccccc1C(=O)O [ASPIRIN],–,4.67,Activity (Mesenchymal stem cells [6]): Active
–,Oc1ccc(/C=C/c2cc(O)cc(O)c2)cc1 [RESVERATROL],–,4.74,–
–,OCCc1c[nH]c2ccccc12 [TRYPTOPHOL],–,5.18,Activity (HaCaT [7]): Active; Activity (Mesenchymal stem cells [6]): Active; Activity (Mesenchymal stem cells [2]; DDE = dose-dependent effect): Dde
–,CCC(C)/C=C/CC(C)/C=C/C(=O)O[C@@H]1[C@@H](O)[C@H](c2c(C)cc(O)cc2O)O[C@H](CO)[C@H]1O (stereo partly drawn),78%,–,–
